Literature values, collected in PMC9329312, “Decoding kinase-adverse event associations for small molecule kinase inhibitors” (Nature Communications, 2022).

Settings: ref FAERS

In the case of `CCOc1cc2ncc(C#N)c(Nc3ccc(OCc4ccccn4)c(Cl)c3)c2cc1NC(=O)/C=C/CN(C)C` [neratinib], the “Drug resistance, % of Cases” value is listed as 0.15%, the “Drug titration, % of Cases” value is listed as 2.1% and the “Dry eye, % of Cases” value is listed as 0.3%. For the same molecule, the “Dry mouth, % of Cases” value was 2.7%, the “Dry skin, % of Cases” value was 2.0% and the “Dry throat, % of Cases” value was 0.075%. The “Duodenal ulcer, % of Cases” value was 0.15%, the “Dysarthria, % of Cases” value was 0.075% and the “Dysgeusia, % of Cases” value was 0.45%. The “Dyspepsia, % of Cases” value was 4.4%, the “Dysphagia, % of Cases” value was 0.5% and the “Dysphemia, % of Cases” value was 0.075%. The “Dysphonia, % of Cases” value was 0.15%, the “Dyspnoea exertional, % of Cases” value was 0.075% and the “Dyspnoea, % of Cases” value was 1.7%. For the same molecule, the “Dysstasia, % of Cases” value was 0.075%, the “Dysuria, % of Cases” value was 0.75% and the “Ear infection, % of Cases” value was 0.15%. For the same molecule, the “Ear pain, % of Cases” value was 0.075%, the “Early satiety, % of Cases” value was 0.225% and the “Eating disorder, % of Cases” value was 0.15%. For the same molecule, the “Ecchymosis, % of Cases” value was 0.075%, the “Eczema, % of Cases” value was 0.075% and the “Ejection fraction decreased, % of Cases” value was 0.15%. For the same molecule, the “Electrocardiogram QT prolonged, % of Cases” value was 0.075%, the “Electrolyte imbalance, % of Cases” value was 0.225% and the “Emergency care, % of Cases” value was 0.7%. For the same molecule, the “Energy increased, % of Cases” value was 0.075%, the “Enteritis, % of Cases” value was 0.075% and the “Eosinophil count increased, % of Cases” value was 0.075%. The “Epinephrine abnormal, % of Cases” value was 0.075%, the “Epistaxis, % of Cases” value was 1.2% and the “Eructation, % of Cases” value was 0.375%. The “Erythema, % of Cases” value was 0.5%, the “Escherichia sepsis, % of Cases” value was 0.075% and the “Escherichia urinary tract infection, % of Cases” value was 0.075%. The “Exfoliative rash, % of Cases” value was 0.075%, the “Eye discharge, % of Cases” value was 0.225% and the “Eye infection, % of Cases” value was 0.075%. The “Eye irritation, % of Cases” value was 0.075%, the “Eye pain, % of Cases” value was 0.075% and the “Eye pruritus, % of Cases” value was 0.15%. The “Eyelid margin crusting, % of Cases” value was 0.075%, the “Facial pain, % of Cases” value was 0.075% and the “Facial paralysis, % of Cases” value was 0.075%. For the same molecule, the “Faecaloma, % of Cases” value was 0.075%, the “Faeces discoloured, % of Cases” value was 0.075% and the “Faeces hard, % of Cases” value was 0.075%. The “Faeces pale, % of Cases” value was 0.225%, the “Faeces soft, % of Cases” value was 0.45% and the “Failure to thrive, % of Cases” value was 0.075%. For the same molecule, the “Fall, % of Cases” value was 0.75%, the “Fatigue, % of Cases” value was 25.2% and the “Febrile neutropenia, % of Cases” value was 0.075%. The “Feeding disorder, % of Cases” value was 0.375%, the “Feeling abnormal, % of Cases” value was 1.5% and the “Feeling jittery, % of Cases” value was 0.15%. For the same molecule, the “Fibromyalgia, % of Cases” value was 0.075%, the “Flank pain, % of Cases” value was 0.075% and the “Flatulence, % of Cases” value was 1.7%. For the same molecule, the “Fluid retention, % of Cases” value was 0.225%, the “Flushing, % of Cases” value was 0.075% and the “Food aversion, % of Cases” value was 0.075%. The “Food craving, % of Cases” value was 0.075%, the “Food poisoning, % of Cases” value was 0.075% and the “Fracture, % of Cases” value was 0.075%. The “Frustration tolerance decreased, % of Cases” value was 0.075%, the “Full blood count abnormal, % of Cases” value was 0.225% and the “Fungal infection, % of Cases” value was 0.075%. For the same molecule, the “Furuncle, % of Cases” value was 0.075%, the “Gait disturbance, % of Cases” value was 0.5% and the “Gait inability, % of Cases” value was 0.075%. For the same molecule, the “Gastric cancer stage IV, % of Cases” value was 0.075%, the “Gastric dilatation, % of Cases” value was 0.075% and the “Gastric disorder, % of Cases” value was 0.3%. For the same molecule, the “Gastric neoplasm, % of Cases” value was 0.075%, the “Gastric ulcer haemorrhage, % of Cases” value was 0.075% and the “Gastritis, % of Cases” value was 0.3%. The “Gastroenteritis norovirus, % of Cases” value was 0.075%, the “Gastroenteritis viral, % of Cases” value was 0.375% and the “Gastroenteritis, % of Cases” value was 0.075%. For the same molecule, the “Gastrointestinal disorder, % of Cases” value was 0.225%, the “Gastrointestinal haemorrhage, % of Cases” value was 0.075% and the “Gastrointestinal infection, % of Cases” value was 0.075%. For the same molecule, the “Gastrointestinal perforation, % of Cases” value was 0.075%, the “Gastrointestinal sounds abnormal, % of Cases” value was 0.5% and the “Gastrooesophageal reflux disease, % of Cases” value was 2.7%. The “Gastrostomy, % of Cases” value was 0.075%, the “Gingival bleeding, % of Cases” value was 0.075% and the “Gingivitis, % of Cases” value was 0.075%. The “Glomerular filtration rate decreased, % of Cases” value was 0.225%, the “Glossodynia, % of Cases” value was 0.075% and the “Glycosylated haemoglobin increased, % of Cases” value was 0.075%. For the same molecule, the “Gout, % of Cases” value was 0.075%, the “Groin pain, % of Cases” value was 0.075% and the “Haematemesis, % of Cases” value was 0.3%. The “Haematochezia, % of Cases” value was 0.6%, the “Haematocrit decreased, % of Cases” value was 0.075% and the “Haemoglobin abnormal, % of Cases” value was 0.075%. For the same molecule, the “Haemoglobin decreased, % of Cases” value was 0.45%, the “Haemorrhage, % of Cases” value was 0.375% and the “Haemorrhoidal haemorrhage, % of Cases” value was 0.075%. The “Haemorrhoids, % of Cases” value was 0.15%, the “Hair growth abnormal, % of Cases” value was 0.15% and the “Hair growth rate abnormal, % of Cases” value was 0.075%. For the same molecule, the “Hair texture abnormal, % of Cases” value was 0.075%, the “Hallucination, % of Cases” value was 0.075% and the “Head and neck cancer, % of Cases” value was 0.075%. For the same molecule, the “Head discomfort, % of Cases” value was 0.075%, the “Headache, % of Cases” value was 5.4% and the “Heart rate decreased, % of Cases” value was 0.075%. For the same molecule, the “Heart rate increased, % of Cases” value was 0.5%, the “Helicobacter infection, % of Cases” value was 0.075% and the “Hepatic cyst, % of Cases” value was 0.075%. The “Hepatic enzyme abnormal, % of Cases” value was 0.075%, the “Hepatic enzyme increased, % of Cases” value was 1.5% and the “Hepatic failure, % of Cases” value was 0.15%. For the same molecule, the “Hepatic function abnormal, % of Cases” value was 0.075%, the “Hepatic steatosis, % of Cases” value was 0.075% and the “Hepatitis, % of Cases” value was 0.3%. The “Hepatomegaly, % of Cases” value was 0.075%, the “Hepatotoxicity, % of Cases” value was 0.075% and the “Hernia, % of Cases” value was 0.075%. For the same molecule, the “Herpes zoster, % of Cases” value was 0.15%, the “Hiccups, % of Cases” value was 0.15% and the “Hip arthroplasty, % of Cases” value was 0.075%. The “Hordeolum, % of Cases” value was 0.15%, the “Hospice care, % of Cases” value was 0.7% and the “Hospitalisation, % of Cases” value was 5.3%. For the same molecule, the “Hot flush, % of Cases” value was 0.6%, the “Human epidermal growth factor receptor negative, % of Cases” value was 0.075% and the “Hydrocephalus, % of Cases” value was 0.075%. The “Hyperbilirubinaemia, % of Cases” value was 0.075%, the “Hyperchlorhydria, % of Cases” value was 0.15% and the “Hyperglycaemia, % of Cases” value was 0.225%. The “Hyperhidrosis, % of Cases” value was 0.075%, the “Hypersensitivity, % of Cases” value was 0.5% and the “Hypersomnia, % of Cases” value was 0.075%. For the same molecule, the “Hypertension, % of Cases” value was 0.15%, the “Hypoaesthesia oral, % of Cases” value was 0.15% and the “Hypoaesthesia, % of Cases” value was 1.0%. The “Hypogeusia, % of Cases” value was 0.075%, the “Hypokalaemia, % of Cases” value was 0.45% and the “Hypomagnesaemia, % of Cases” value was 0.075%. The “Hyponatraemia, % of Cases” value was 0.075%, the “Hypophagia, % of Cases” value was 0.15% and the “Hypophosphataemia, % of Cases” value was 0.075%. For the same molecule, the “Hypotension, % of Cases” value was 0.6%, the “Hypovolaemia, % of Cases” value was 0.075% and the “Hypoxia, % of Cases” value was 0.15%. The “Hysterectomy, % of Cases” value was 0.15%, the “Illness, % of Cases” value was 1.7% and the “Impaired driving ability, % of Cases” value was 0.075%. The “Impaired healing, % of Cases” value was 0.15%, the “Impaired quality of life, % of Cases” value was 0.375% and the “Implantable defibrillator insertion, % of Cases” value was 0.075%. The “Inappropriate schedule of product administration, % of Cases” value was 0.45%, the “Incision site abscess, % of Cases” value was 0.075% and the “Incorrect dosage administered, % of Cases” value was 0.075%. The “Incorrect dose administered, % of Cases” value was 1.7%, the “Increased appetite, % of Cases” value was 0.075% and the “Infection, % of Cases” value was 0.6%. The “Influenza like illness, % of Cases” value was 0.3%, the “Influenza, % of Cases” value was 0.7% and the “Infrequent bowel movements, % of Cases” value was 0.075%. The “Insomnia, % of Cases” value was 1.2%, the “Intensive care, % of Cases” value was 0.075% and the “Intentional dose omission, % of Cases” value was 0.225%. For the same molecule, the “Intentional product use issue, % of Cases” value was 0.15%, the “Intentional underdose, % of Cases” value was 0.15% and the “Intervertebral disc protrusion, % of Cases” value was 0.075%. For the same molecule, the “Intestinal haemorrhage, % of Cases” value was 0.075% and the “Intestinal obstruction, % of Cases” value was 0.075%.
